Reference: US20140378408A1, “NUCLEOSIDE 5'-PHOSPHOROTHIOATE ANALOGUES AND USES THEREOF” (BAR-ILAN UNIVERSITY, an Israeli University, priority 2012, published 2014)
Read-outs that look alike come from different tables or passages of the source.

Tests used:
chondrocytes = assay: Pyrophosphate formed by ATP hydrolysis in the presence of chondrocytes (fluorogenic sensor); assay type: cell-based, human; details: 8 h, ATP alone 0.46 μM, without chondrocytes 0.26 μM
[1] = target: T1, NPP1 from matrix vesicles (MVs) (Homo sapiens, UniProt P22413); assay: NTMP hydrolysis in matrix vesicles; assay type: biochemical; details: 0.1 mM, NTMP 0.1 mM, OD 405 nm
T1 construct: Its hydrolysis by endogenous enzyme (NPP1) from matrix vesicles (MVs); from tissue; host or cells: matrix vesicles (MVs)
Protocol: Increased chondrocyte PPi production, and PPi-generating NPP1 activity are linked with CPPD crystal deposition disease, common in aging and osteoarthritic cartilage. […] Its hydrolysis by endogenous enzyme (NPP1) from matrix vesicles (MVs), human chondrocytes or cartilage pieces results in elevated OD at 405 nm.
In order to test the ability of the NPP1 inhibitor APPCCl2P-α-S (isomer A) to inhibit NTMP hydrolysis in MVs, MVs at 2.6 mg/ml (final concentration) were incubated with 0.1 mM NTMP in 2-[(2-Hydroxy-1,1-bis(hydroxymethyl)ethyl)amino]ethanesulfonic acid (TES; Sigma catalog number T1375), pH 7.37, in the presence or absence of 0.1 mM of said NPP1 inhibitor for 0, 15′, 30′, 1, 2, 4, 8 hours at 37° C. At each time point the reaction was read at 405 nm.

matrix vesicles (MVs) = assay: CPPD formation in MVs by FTIR analysis; design: species or system human; details: MV+ATP+analogue
PC12 cells = assay: Stability of nucleotides in PC12 cells
cortical neurons = assay: Neuroprotection of cultured cortical neurons exposed to FeSO4 or FeSO4/H2O2; assay type: cell-based
Protocol: FIGS. 10A-10B show the neuroprotective effect of ATP-γ-S and GDP-β-S (0.2-200 μM, t=24 h) as evaluated by MTT production in cortical neurons exposed for 24 h to either FeSO4 at final concentration of 3 μM (10A); or both FeSO4 (3 μM) and H2O2 (100 μM) (10B). The results shown are the mean±SEM of three independent experiments in quadruplicate.
Cultured cortical neurons in 96-well plates were treated with different concentrations of FeSO4, or hydrogen peroxide and FeSO4, for 24 h at 37° C. Following exposure to various insults, the cells were treated with ATP-γ-S and GDP-β-S as described. Cells were subsequently incubated for a further 18-24 h as indicated before being assessed for viability measures. Neurons were treated with ATP-γ-S and GDP-β-S at three concentrations ([…]) simultaneously with 1.5, 3 or 6 μM FeSO4 for 24 h. Following 24 h incubation in the presence of both FeSO4 and ATP-γ-S and GDP-β-S cell viability measures were assessed by XTT assay. All experiments were performed in triplicate.
FeSO4 induced a concentration-dependent decrease in cell viability as assessed by XTT assay and morphological assessment following 24 h of exposure (FIG. 9). The neuroprotective effect of ATP-γ-S and GDP-β-S (due to iron chelation) was evaluated in cortical neurons exposed to FeSO4 for 24 h (FIG. 10).

Aβ28-Cu^+ complex = target: T2, Aβ28-Cu^+ complex (Homo sapiens, UniProt P05067); assay: Titration of Aβ28-Cu^+ complex by chelators monitored by 1H-NMR; details: 0.8 mM Aβ28-Cu^+, pD 7
T2 construct: we first studied Aβ28, as a more soluble fragment of Aβ40; purchased Sigma-Aldrich

primary neurons = assay: Protection of primary neuron culture against Aβ42 insult (trypan blue count); assay type: cell-based; details: Primary neuron
Protocol: Primary neuron cells were cultured in 96 wells plate (95×10^4 per well). After 24 h the cells were treated with 50 μM Aβ42 and various concentrations of APCPP-γ-S (0.04-25 μM) for 48 h. Cell viability was measured by dyeing the cells with trypan blue and counts of the vital cells. The results shown are the mean±S.D of three independent experiments in triplicate (*P<0.05, vs. Aβ42 treatment).
Primary neurons cells were cultured in 96 wells plate (95×10^4 per well). […] Cell viability was measured by dyeing the cells with trypan blue and counts the vital cells. The results shown are the mean±S.D of three independent experiments in triplicate (*P<0.05, **P<0.01 vs. Aβ42 treatment).
In this study, the neuroprotective activity of APCPP-γ-S in neuronal cells exposed to toxic Aβ42 was evaluated. At first we measured the number of the viable neuronal cells after treatment with Aβ42 (5-50 μM) (FIG. 11). At 50 μM Aβ42, 50% of the neuronal culture remained vital. Next, we measured the protective effect of APCPP-γ-S: primary neurons were treated with APCPP-γ-S (0.04-25 μM) and 50 μM Aβ42 for 48 h.

[2] = Chemical stability (acid, base, air-oxidation) monitored by 31P-NMR; assay type: physicochemical; details: for stability: pD=1 as printed, two weeks
Protocol: In order to study and evaluate the chemical stability of adenosine-5′-tetrathio bisphosphonate and di-adenosine 5′,5″-tetrathiobisphosphonate to basic and acidic condition, as well as to air-oxidation, kinetic measurements were performed by monitoring the changes in the percentage of these amalogues, using ^31P-NMR (FIGS. 16-18).
The evaluation of the stability of adenosine-5′-tetrathio bisphosphonate by ^31P-NMR was first conducted at pD=1.5 for four days. In the course of the experiment, new signals emerged in ^31P-NMR spectra at 104.4, 92.3, 89.2, 86.1, 67.8 ppm and the percentage of starting material was obtained from the ratio of integration between the starting material and the total peaks in the spectrum.
Next, we studied the stability of adenosine-5′-tetrathio bisphosphonate under basic conditions, pD=11. […] After two weeks, the ^31P-NMR spectrum was identical to the starting material, without any indication of decomposition. We associate this with the repulsion between the negative charges of the tetrathio-bisphosphonate moiety in adenosine-5′-tetrathio bisphosphonate and OH^− ions. In addition, intramolecular nucleophilic attack and formation of disulfide bond are less likely to occur under these conditions.
Furthermore, we tested the stability of adenosine-5′-tetrathio bisphosphonate under air-oxidizing conditions, by performing ^31P-NMR measurements in an open rotating NMR tube. […] The MS and ^31P-NMR analysis of the freeze-dried sample of adenosine-5′-tetrathio bisphosphonate after 3 days indicated the formation of an intramolecularly oxidized product.

T1 sequence (P22413 whole entry): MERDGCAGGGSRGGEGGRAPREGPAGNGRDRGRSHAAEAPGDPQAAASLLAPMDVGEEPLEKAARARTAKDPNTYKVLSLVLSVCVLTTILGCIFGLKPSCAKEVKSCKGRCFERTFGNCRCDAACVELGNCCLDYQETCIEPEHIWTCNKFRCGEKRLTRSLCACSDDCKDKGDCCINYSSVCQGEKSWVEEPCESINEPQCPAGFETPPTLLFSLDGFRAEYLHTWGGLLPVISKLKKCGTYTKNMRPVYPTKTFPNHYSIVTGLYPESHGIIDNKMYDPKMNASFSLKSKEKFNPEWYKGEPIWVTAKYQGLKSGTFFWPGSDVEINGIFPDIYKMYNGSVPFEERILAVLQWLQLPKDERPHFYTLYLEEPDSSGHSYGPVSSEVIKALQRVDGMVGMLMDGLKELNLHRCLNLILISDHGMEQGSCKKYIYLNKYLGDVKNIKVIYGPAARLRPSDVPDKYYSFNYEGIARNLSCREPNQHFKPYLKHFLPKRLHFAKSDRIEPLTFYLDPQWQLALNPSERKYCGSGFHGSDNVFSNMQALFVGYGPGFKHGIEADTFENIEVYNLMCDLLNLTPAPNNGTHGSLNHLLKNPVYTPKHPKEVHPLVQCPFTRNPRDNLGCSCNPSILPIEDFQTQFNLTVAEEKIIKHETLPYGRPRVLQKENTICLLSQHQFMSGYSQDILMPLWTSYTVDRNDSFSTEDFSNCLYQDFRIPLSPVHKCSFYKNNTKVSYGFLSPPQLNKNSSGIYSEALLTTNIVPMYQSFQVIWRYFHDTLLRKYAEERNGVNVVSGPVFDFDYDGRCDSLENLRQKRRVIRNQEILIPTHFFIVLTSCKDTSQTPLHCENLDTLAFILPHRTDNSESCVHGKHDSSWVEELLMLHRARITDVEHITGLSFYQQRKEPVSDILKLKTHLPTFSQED
T2 sequence (P05067 672-699 limits assumed, one chain of several): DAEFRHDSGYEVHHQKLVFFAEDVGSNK

For `Nc1ncnc2c1ncn2[C@@H]1O[C@H](COP(O)(=S)OP(=O)(O)C(Cl)(Cl)P(=O)(O)O)[C@@H](O)[C@H]1O` (single isomer, unassigned; isomer a) [APPCCl2P-α-S (isomer A), adenosine 5′-[Pα-thio]-β,γ-(dichloromethylene)triphosphate], the “PPi formed on co-application with ATP” value (chondrocytes) was 0.029 µM, the “inhibition of NTMP hydrolysis in MVs” value [1] was “inhibit the hydrolysis of NTMP” and the “CPPD production in MVs (FTIR bands 920 and 1125 cm^−1)” value (matrix vesicles (MVs)) was “a decrease in production of CPPD”.
In the case of `Nc1ncnc2c1ncn2[C@@H]1O[C@H](COP(=O)(O)OP(O)(O)=S)[C@@H](O)[C@H]1O` [ADP-β-S, adenosine 5′-[β-thio]diphosphate, reference compound], the “fold more stable in PC12 cells than parent nucleotide (GDP, ADP)” value (PC12 cells) is reported as 3 fold, the IC50 (cortical neurons; Table 2, neuroprotection of primary neurons exposed to FeSO4, read-out: IC50) is reported as 1.2 ± 0.007 µM and the “equivalents at which the spectrum resembled that of pure Aβ28” value (Aβ28-Cu^+ complex) is reported as 5 eq.
For `Nc1ncnc2c1ncn2[C@@H]1O[C@H](COP(=O)(O)CP(=O)(O)OP(O)(O)=S)[C@@H](O)[C@H]1O` [APCPP-γ-S, adenosine 5′-[Pγ-thio]-α,β-methylenetriphosphate], the IC50 (primary neurons; 48 h, read-out: concentration that maintained 50% of neuronal cells) was 0.2 µM, the IC50 (primary neurons; read-out: IC50 protection from Aβ42 insult) was 0.2 µM and the IC50 (cortical neurons; Cortical neurone, read-out: IC50 protection from damage caused by FeSO4) was 0.04 µM.
With adenosine-5′-tetrathiobisphosphonate the stability [2] was “completely stable even after two weeks” and the “stability under basic conditions” value ([2]; pD=11, two weeks) was “highly stable”.
For “di-adenosine-5′,5″-tetrathiobisphosphonate”, the “stability under air-oxidizing conditions” value ([2]; open NMR tube, 3 days) was “highly stable” and the stability [2] was “identical to that of adenosine 5′-tetrathiobisphosphonate”.
